Earlier results, collected in US7205292B2, “CGRP receptor antagonists” (Merck & Co., Inc., priority 2003, dated 2007).

Legend:
CGRP [1] = conditions: marmoset, electrical stimulation of the trigeminal ganglion
CGRP [2] = conditions: rats, electrical stimulation of the dura mater, prior administration
CGRP [3] = conditions: rat, trigeminal ganglion stimulation

Row | Compound | effect on increase in facial blood flow (CGRP [1]) | effect on increased diameter of the middle meningeal artery (CGRP [2]) | effect on increased facial blood flow (CGRP [3])
1 | NCCCC[C@H](NC(=O)[C@@H](Cc1cc(Br)c(O)c(Br)c1)NC(=O)N1CCC(N2Cc3ccccc3NC2=O)CC1)C(=O)N1CCN(c2ccncc2)CC1 [BIBN4096BS] | blocked | – | –
2 | CGRP(8-37) | – | blocked | inhibited
